Test results published in PubChem BioAssay (NCI).
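Results reflect a 48-hour exposure of cells in 96-well plates to compound at five concentrations. At the TGI there is no net growth.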

What was measured:
Test in all cases: NCI-60 cell line screen, 48 h
[1] = tested on: HT29 colon
[2] = tested on: LOX IMVI melanoma
[3] = tested on: MALME-3M melanoma
[4] = tested on: RXF 393 renal
[5] = tested on: SN12C renal
[6] = tested on: HCT-116 colon
[7] = tested on: NCI-H522 lung
[8] = tested on: 786-0 renal
[9] = tested on: KM12 colon
[10] = tested on: K-562 leukemia
[11] = tested on: TK-10 renal
[12] = tested on: UACC-257 melanoma
[13] = tested on: ACHN renal
[14] = tested on: SR leukemia
[15] = tested on: SF-539 CNS
[16] = tested on: OVCAR-4 ovarian
[17] = tested on: IGROV1 ovarian
[18] = tested on: EKVX NSCLC
[19] = tested on: NCI-H226 lung
[20] = tested on: SF-295 CNS
[21] = tested on: CAKI-1 renal
[22] = tested on: A549 NSCLC
[23] = tested on: MOLT-4 leukemia
[24] = tested on: HS 578T breast
[25] = tested on: OVCAR-3 ovarian
[26] = tested on: U251 CNS
[27] = tested on: RPMI-8226 leukemia
[28] = tested on: DU-145 prostate
[29] = tested on: NCI-H460 lung
[30] = tested on: HOP-62 NSCLC
[31] = tested on: SNB-19 CNS
[32] = tested on: COLO 205 colon
[33] = tested on: SK-MEL-5 melanoma
[34] = tested on: A498 renal
[35] = tested on: M14 melanoma
[36] = tested on: HCT-15 colon
[37] = tested on: SK-MEL-2 melanoma
[38] = tested on: MCF7 breast
[39] = tested on: MDA-N
[40] = tested on: T-47D breast
[41] = tested on: MDA-MB-231 breast
[42] = tested on: NCI/ADR-RES ovarian
[43] = tested on: NCI-H23 lung
[44] = tested on: PC-3 prostate
[45] = tested on: SW-620 colon
[46] = tested on: HL-60(TB) leukemia
[47] = tested on: OVCAR-5 ovarian
[48] = tested on: HOP-92 NSCLC
[49] = tested on: SK-MEL-28 melanoma
[50] = tested on: SK-OV-3 ovarian
[51] = tested on: SF-268 CNS
[52] = tested on: UACC-62 melanoma
[53] = tested on: MDA-MB-435
[54] = tested on: HCC-2998 colon

Measured: TGI

O=C1C[C@@]23CCC4(CC2=CCC[C@H]3O1)OCCO4
> 100 µM: [1] | [2] | [3] | [4] | [5] | [6] | [7] | [8] | [9] | [10] | [11] | [12] | [13] | [14] | [15] | [16] | [17] | [18] | [19] | [20] | [21] | [22] | [23] | [24] | [25] | [26] | [27] | [28] | [29] | [30] | [31] | [32] | [33] | [34] | [35] | [36] | [37] | [38] | [39] | [40] | [41] | [42] | [43] | [44] | [45] | [46] | [47] | [48] | [49] | [50] | [51] | [52] | [53] | [54]
